pIC50: −log10 of the molar value. Read-outs that look alike come from different tables or passages of the source.
Molecular target: T1, Chk1 (Homo sapiens, UniProt O14757)
T1 construct: purchased Upstate Biotechnology
T1 sequence (O14757 1-476): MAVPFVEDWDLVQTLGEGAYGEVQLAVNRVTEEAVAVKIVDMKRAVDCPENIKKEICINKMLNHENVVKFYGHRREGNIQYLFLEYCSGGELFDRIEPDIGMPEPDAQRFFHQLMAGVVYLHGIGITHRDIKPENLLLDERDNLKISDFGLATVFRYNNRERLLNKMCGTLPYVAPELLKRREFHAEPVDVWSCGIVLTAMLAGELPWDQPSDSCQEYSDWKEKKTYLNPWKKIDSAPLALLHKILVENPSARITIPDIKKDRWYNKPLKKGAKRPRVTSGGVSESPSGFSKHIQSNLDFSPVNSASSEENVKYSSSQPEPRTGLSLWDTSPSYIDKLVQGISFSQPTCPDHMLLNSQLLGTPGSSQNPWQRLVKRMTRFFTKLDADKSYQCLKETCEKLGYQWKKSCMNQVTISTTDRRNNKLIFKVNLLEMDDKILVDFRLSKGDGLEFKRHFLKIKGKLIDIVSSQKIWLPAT
Test: Chk1 assay: incorporation of γ-33P ATP into immobilized myelin basic protein
Assay type: biochemical
Experimental: Chk1 and Chk2 assays were performed by measuring incorporation of γ-^33P ATP into immobilized myelin basic protein (MBP). High binding white 384 well plates (Greiner) were coated with MBP (Sigma #M-1891) by incubation of 60ul/well of 20µg/ml MBP in Tris-buffered saline (TBS; 50mM Tris pH 8.0, 138mM NaCl, 2.7mM KCl) for 24 hours at 4° C. Plates were washed 3X with 100µl TBS. Kinase reactions were carried out in a total volume of 34µl in kinase buffer (5mM Hepes pH 7.6, 15mM NaCl, 0.01% bovine gamma globulin (Sigma #I-5506), 10mM MgCl2, 1mM DTT, 0.02% TritonX-100). Compound dilutions were performed in DMSO and added to assay wells to a final DMSO concentration of 1%. Each data point was measured in duplicate, and at least two duplicate assays were performed for each individual compound determination. Chkl and Chk2 enzymes (Upstate Biotechnology) were added to final concentrations of 10nM (Chkl) or 20nM (Chk2). A mixture of unlabeled ATP and γ-^33P ATP was added to start the reaction (2x10^6 cpm of γ-^33P ATP per well (3000Ci/mmole) and either 10µM or 30µM unlabeled ATP (for Chkl and Chk2 assays respectively). The reaction was carried out for 1 hour at room temperature with shaking. Plates were washed 7x with TBS, followed by the addition of 50µl/well scintillation fluid (Wallac). Plates were read using a Wallac Trilux counter. This is only one format of such assays, various other formats are possible, as known to those skilled in the art.
The above assay procedure can be used to determine the IC50 for inhibition and/or the inhibition constant Ki. The IC50 is defined as the concentration of compound required to reduce the enzyme activity by 50% under the conditions of the assay. […] The Ki for a compound may be determined from the IC50 based on three assumptions. First, only one compound molecule binds to the enzyme and there is no cooperativity. […] Third, the enzymatic rate of the enzyme-inhibitor complex is zero. The rate (i.e., compound concentration) data are fitted to the equation: V = Vmax E0 [I-((E0+I0+Kd)-sqrt(((E0+I0+Kd))^2 -4E0 I0))/(2E0)] [formula]

SMILES	pIC50 (Table 11, Chk1 only)	further results
C[C@@H](NC(=O)c1cccc(-c2cnc(N)c(C(=O)N[C@H]3CCNC3)n2)c1)c1ccccc1 [compound 716, 3-amino-6-[3-({[(1R)-1-phenylethyl]amino}carbonyl)phenyl]-N-[(3S)-pyrrolidin-3-yl]pyrazine-2-carboxamide]		pIC50 (Table 11, inhibition given as IC50 class symbol): 5.00 to 6.00
Nc1ncc(-c2ccccc2)nc1C(=O)NC1Cc2ccccc2C1 [compound 6, 3-amino-N-(2,3-dihydro-1H-inden-2-yl)-6-phenylpyrazine-2-carboxamide]	< 5.00	
Nc1ncc(-c2ccccc2)nc1C(=O)NC1CC1 [compound 20, 3-amino-N-cyclopropyl-6-phenylpyrazine-2-carboxamide]	< 5.00	
CNC(=O)c1cccc(-c2cnc(N)c(C(=O)NC)n2)c1 [compound 64, 3-amino-N-methyl-6-{3-[(methylamino)carbonyl]phenyl}pyrazine-2-carboxamide]	5.00 to 6.00	
Nc1ncc(-c2cccc(C(=O)NCc3ccc(-c4cccs4)cc3)c2)nc1C(=O)N[C@H]1CCCNC1 [compound 854, 3-amino-N-[(3S)-piperidin-3-yl]-6-{3-[({[4-(2-thienyl)phenyl]methyl}amino)carbonyl]phenyl}pyrazine-2-carboxamide]		pIC50: > 7.30
CCOc1cccc(-c2cnc(N)c(C(=O)NC)n2)c1 [compound 50, 3-amino-6-[3-(ethyloxy)phenyl]-N-methylpyrazine-2-carboxamide]	5.00 to 6.00	
NC(=O)c1nc(-c2cccc3ccccc23)cnc1N [compound 26, 3-amino-6-naphthalen-1-ylpyrazine-2-carboxamide]	< 5.00	
CN(C)C(=O)c1nc(-c2ccccc2)cnc1N [compound 9, 3-amino-N,N-dimethyl-6-phenylpyrazine-2-carboxamide]	5.00 to 6.00	
CNC(=O)c1nc(-c2cccc(NC(C)=O)c2)cnc1N [compound 56, 6-[3-(acetylamino)phenyl]-3-amino-N-methylpyrazine-2-carboxamide]	6.00 to 7.30	
NC(=O)c1nc(-c2cccc(C(=O)O)c2)cnc1N [compound 42, 3-[5-amino-6-(aminocarbonyl)pyrazin-2-yl]benzoic acid]	< 5.00	

Further lines, with some results ahead:

pIC50 (Table 11, Chk1 only)	SMILES	further results
< 5.00	NC(=O)c1nc(-c2ccc(OCc3ccccc3)cc2)cnc1N [compound 43, 3-amino-6-{4-[(phenylmethyl)oxy]phenyl}pyrazine-2-carboxamide]	
< 5.00	CC(=O)NCCNC(=O)c1nc(-c2ccccc2)cnc1N [compound 47, N-[2-(acetylamino)ethyl]-3-amino-6-phenylpyrazine-2-carboxamide]	
5.00 to 6.00	COC(=O)c1cccc(-c2cnc(N)c(C(N)=O)n2)c1 [compound 34, methyl 3-[5-amino-6-(aminocarbonyl)pyrazin-2-yl]benzoate]	
< 5.00	Nc1ncc(-c2ccccc2)nc1C(=O)N[C@@H]1CCc2ccccc21 [compound 4, 3-amino-N-[(1R)-2,3-dihydro-1H-inden-1-yl]-6-phenylpyrazine-2-carboxamide]	
6.00 to 7.30	CNC(=O)c1nc(-c2cccc(C)c2)cnc1N [compound 53, 3-amino-N-methyl-6-(3-methylphenyl)pyrazine-2-carboxamide]	
5.00 to 6.00	Cc1cccc(-c2cnc(N)c(C(=O)NCCO)n2)c1 [compound 329, 3-amino-N-(2-hydroxyethyl)-6-(3-methylphenyl)pyrazine-2-carboxamide]	
5.00 to 6.00	CCOc1cccc(-c2cnc(N)c(C(N)=O)n2)c1 [compound 24, 3-amino-6-[3-(ethyloxy)phenyl]pyrazine-2-carboxamide]	
< 5.00	NC(=O)c1nc(-c2ccc(F)c(F)c2)cnc1N [compound 21, 3-amino-6-(3,4-difluorophenyl)pyrazine-2-carboxamide]	
< 5.00	Cc1ccccc1-c1cnc(N)c(C(N)=O)n1 [compound 16, 3-amino-6-(2-methylphenyl)pyrazine-2-carboxamide]	
< 5.00	Nc1ncc(-c2ccccc2)nc1C(=O)NCc1ccccc1 [compound 2, 3-amino-6-phenyl-N-(phenylmethyl)pyrazine-2-carboxamide]	

From patent EP1501514B1, “PROTEIN KINASE MODULATORS AND METHODS OF USE” (Exelixis, Inc., priority 2002, dated 2003)
